Assay results: patent US11260049B2, “TRPV4 antagonists” (GlaxoSmithKline Intellectual Property (No. 2) Limited, priority 2016, dated 2022)

Molecular target: human TRPV4 (Homo sapiens (Human), UniProt Q9HBA0)
Experiment: FLIPR assay for hTRPV4 expressed in BHK cells
Format: cell-based
Conditions: inhibition of Agonist Compound (EC80)-induced calcium signal; BHK/AC9 cells expressing human TRPV4; read-out: IC50
Outline: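 BHK/AC9 cells transduced with BacMam human TRPV4 (MOI 78), 15,000 cells/well, cultured 24 h at 37 °C. Loaded with 2 μM Fluo-4 AM and 500 μM Brilliant Black in HBSS for 1–1.5 h at room temperature in the dark. Intracellular calcium influx monitored by fluorescence.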

human TRPV4, sequence (Q9HBA0 whole entry): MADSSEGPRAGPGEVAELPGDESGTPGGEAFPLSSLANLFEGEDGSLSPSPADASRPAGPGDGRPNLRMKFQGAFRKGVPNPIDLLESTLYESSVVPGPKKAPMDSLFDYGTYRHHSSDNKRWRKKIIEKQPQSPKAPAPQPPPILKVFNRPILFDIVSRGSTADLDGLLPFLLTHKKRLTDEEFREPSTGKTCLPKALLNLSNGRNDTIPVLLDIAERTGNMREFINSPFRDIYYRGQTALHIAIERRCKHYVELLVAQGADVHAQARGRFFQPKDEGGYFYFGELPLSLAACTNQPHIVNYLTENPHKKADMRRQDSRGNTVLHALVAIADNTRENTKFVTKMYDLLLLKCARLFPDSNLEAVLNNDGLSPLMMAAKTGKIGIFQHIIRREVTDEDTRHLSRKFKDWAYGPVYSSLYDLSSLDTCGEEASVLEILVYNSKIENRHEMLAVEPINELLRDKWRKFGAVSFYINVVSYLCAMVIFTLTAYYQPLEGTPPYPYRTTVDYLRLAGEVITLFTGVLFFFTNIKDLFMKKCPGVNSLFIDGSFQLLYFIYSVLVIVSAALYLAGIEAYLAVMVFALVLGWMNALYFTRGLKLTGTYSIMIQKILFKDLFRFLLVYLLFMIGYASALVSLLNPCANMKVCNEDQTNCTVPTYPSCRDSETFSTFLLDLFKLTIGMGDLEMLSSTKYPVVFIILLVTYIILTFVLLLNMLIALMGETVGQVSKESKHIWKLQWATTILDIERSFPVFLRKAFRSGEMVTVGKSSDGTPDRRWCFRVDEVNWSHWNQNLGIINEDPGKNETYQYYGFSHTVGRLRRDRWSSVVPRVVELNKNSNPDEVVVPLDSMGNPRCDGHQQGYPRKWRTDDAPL

| Structure (SMILES) | IC50 |
| --- | --- |
| N#Cc1cc(C(F)(F)F)ccc1S(=O)(=O)N1C[C@H](S(=O)(=O)c2ccc(F)c(F)c2)[C@](O)(CO)C1 [Example 93, 2-(((3R,4S)-4-((3,4-difluorophenyl)sulfonyl)-3-hydroxy-3-(hydroxymethyl)pyrrolidin-1-yl)sulfonyl)-5-(trifluoromethyl)benzonitrile] | 10 to 100 nM |
| N#Cc1cc(C(F)(F)F)ccc1S(=O)(=O)N1C[C@H](S(=O)(=O)c2cc(F)c(F)c(F)c2)[C@](O)(CO)C1 [Example 94, 2-(((3R,4S)-3-hydroxy-3-(hydroxymethyl)-4-((3,4,5-trifluorophenyl)sulfonyl)pyrrolidin-1-yl)sulfonyl)-5-(trifluoromethyl)benzonitrile] | 10 to 100 nM |
| N#Cc1cc(F)c(S(=O)(=O)[C@H]2CN(S(=O)(=O)c3ccc(Cl)cc3Cl)C[C@@]2(O)CO)cc1F [Example 95, 4-(((3S,4R)-1-((2,4-dichlorophenyl)sulfonyl)-4-hydroxy-4-(hydroxymethyl)pyrrolidin-3-yl)sulfonyl)-2,5-difluorobenzonitrile] | 10 to 100 nM |
| O=S(=O)(c1ccc(C(F)(F)F)cc1)[C@H]1CN(S(=O)(=O)c2ccc(C(F)(F)F)cc2Cl)C[C@@]1(O)CO [Example 96, (3R,4S)-1-((2-chloro-4-(trifluoromethyl)phenyl)sulfonyl)-3-(hydroxymethyl)-4-((4-(trifluoromethyl)phenyl)sulfonyl)pyrrolidin-3-ol] | 10 to 100 nM |
| O=S(=O)(c1ccc(Cl)cc1)[C@H]1CN(S(=O)(=O)c2ccc(C(F)(F)F)cc2Cl)C[C@@]1(O)CO [Example 97, (3R,4S)-1-((2-chloro-4-(trifluoromethyl)phenyl)sulfonyl)-4-((4-chlorophenyl)sulfonyl)-3-(hydroxymethyl)pyrrolidin-3-ol] | 10 to 100 nM |
| O=S(=O)(c1ccc(Cl)c(F)c1)[C@H]1CN(S(=O)(=O)c2ccc(C(F)(F)F)cc2Cl)C[C@@]1(O)CO [Example 98, (3R,4S)-4-((4-chloro-3-fluorophenyl)sulfonyl)-1-((2-chloro-4-(trifluoromethyl)phenyl)sulfonyl)-3-(hydroxymethyl)pyrrolidin-3-ol] | 10 to 100 nM |
| O=S(=O)(c1ccc(Cl)nc1)[C@H]1CN(S(=O)(=O)c2ccc(C(F)(F)F)cc2Cl)C[C@@]1(O)CO [Example 99, (3R,4S)-1-((2-chloro-4-(trifluoromethyl)phenyl)sulfonyl)-4-((6-chloropyridin-3-yl)sulfonyl)-3-(hydroxymethyl)pyrrolidin-3-ol] | 10 to 100 nM |
| Cc1cc(S(=O)(=O)[C@H]2CN(S(=O)(=O)c3ccc(C(F)(F)F)cc3Cl)C[C@@]2(O)CO)ccc1C#N [Example 100, 4-(((3S,4R)-1-((2-chloro-4-(trifluoromethyl)phenyl)sulfonyl)-4-hydroxy-4-(hydroxymethyl)pyrrolidin-3-yl)sulfonyl)-2-methylbenzonitrile] | 10 to 100 nM |
| N#Cc1ccc(S(=O)(=O)[C@H]2CN(S(=O)(=O)c3ccc(C(F)(F)F)cc3Cl)C[C@@]2(O)CO)cc1Cl [Example 101, 2-chloro-4-(((3S,4R)-1-((2-chloro-4-(trifluoromethyl)phenyl)sulfonyl)-4-hydroxy-4-(hydroxymethyl)pyrrolidin-3-yl)sulfonyl)benzonitrile] | 10 to 100 nM |
| O=S(=O)(c1ccc(F)cc1)[C@H]1CN(S(=O)(=O)c2ccc(Cl)cc2Cl)C[C@@]1(O)CO [Example 102, (3R,4S)-1-((2,4-dichlorophenyl)sulfonyl)-4-((4-fluorophenyl)sulfonyl)-3-(hydroxymethyl)pyrrolidin-3-ol] | 10 to 100 nM |
| N#Cc1cc(S(=O)(=O)[C@H]2CN(S(=O)(=O)c3ccc(Cl)cc3Cl)C[C@@]2(O)CO)ccc1Cl [Example 103, 2-chloro-5-(((3S,4R)-1-((2,4-dichlorophenyl)sulfonyl)-4-hydroxy-4-(hydroxymethyl)pyrrolidin-3-yl)sulfonyl)benzonitrile] | 10 to 100 nM |
| CCc1ccc(S(=O)(=O)[C@H]2CN(S(=O)(=O)c3ccc(C#N)cc3Cl)C[C@@]2(O)CO)cc1 [Example 104, 3-chloro-4-(((3R,4S)-4-((4-ethylphenyl)sulfonyl)-3-hydroxy-3-(hydroxymethyl)pyrrolidin-1-yl)sulfonyl)benzonitrile] | 10 to 100 nM |
| CC(C)c1ccc(S(=O)(=O)[C@H]2CN(S(=O)(=O)c3ccc(C#N)cc3Cl)C[C@@]2(O)CO)cc1 [Example 105, 3-chloro-4-(((3R,4S)-3-hydroxy-3-(hydroxymethyl)-4-((4-isopropylphenyl)sulfonyl)pyrrolidin-1-yl)sulfonyl)benzonitrile] | 10 to 100 nM |
| CCCc1ccc(S(=O)(=O)[C@H]2CN(S(=O)(=O)c3ccc(C#N)cc3Cl)C[C@@]2(O)CO)cc1 [Example 106, 3-chloro-4-(((3R,4S)-3-hydroxy-3-(hydroxymethyl)-4-((4-propylphenyl)sulfonyl)pyrrolidin-1-yl)sulfonyl)benzonitrile] | 10 to 100 nM |
| N#Cc1ccc(S(=O)(=O)N2C[C@H](S(=O)(=O)c3ccc(Cl)c(F)c3)[C@](O)(CO)C2)c(Cl)c1 [Example 107, 3-chloro-4-(((3R,4S)-4-((4-chloro-3-fluorophenyl)sulfonyl)-3-hydroxy-3-(hydroxymethyl)pyrrolidin-1-yl)sulfonyl)benzonitrile] | 0.1 to 10 nM |
| O=S(=O)(c1cnc(C(F)(F)F)nc1)[C@H]1CN(S(=O)(=O)c2ccc(Cl)cc2Cl)C[C@@]1(O)CO [Example 108, (3R,4S)-1-((2,4-dichlorophenyl)sulfonyl)-3-(hydroxymethyl)-4-((2-(trifluoromethyl)pyrimidin-5-yl)sulfonyl)pyrrolidin-3-ol] | 10 to 100 nM |
| N#Cc1ccc(S(=O)(=O)N2C[C@H](S(=O)(=O)c3ccc(Cl)cn3)[C@@](O)(CO)C2)c(Cl)c1 [Example 109, 3-chloro-4-(((3S,4S)-4-((5-chloropyridin-2-yl)sulfonyl)-3-hydroxy-3-(hydroxymethyl)pyrrolidin-1-yl)sulfonyl)benzonitrile] | 10 to 100 nM |
| N#Cc1ccc(S(=O)(=O)N2C[C@H](S(=O)(=O)c3ccc(C(F)(F)F)cn3)[C@](O)(CO)C2)c(Cl)c1 [Example 110, 3-chloro-4-(((3R,4S)-3-hydroxy-3-(hydroxymethyl)-4-((5-(trifluoromethyl)pyridin-2-yl)sulfonyl)pyrrolidin-1-yl)sulfonyl)benzonitrile] | 10 to 100 nM |
| N#Cc1ncccc1S(=O)(=O)N1C[C@H](S(=O)(=O)c2ccc(Cl)cc2)[C@](O)(CO)C1 [Example 111, 3-(((3R,4S)-4-((4-chlorophenyl)sulfonyl)-3-hydroxy-3-(hydroxymethyl)pyrrolidin-1-yl)sulfonyl)picolinonitrile] | 10 to 100 nM |
| N#Cc1ccc(S(=O)(=O)N2C[C@H](S(=O)(=O)c3cnc(C(F)(F)F)nc3)[C@](O)(CO)C2)c(Cl)c1 [Example 112, 3-chloro-4-(((3R,4S)-3-hydroxy-3-(hydroxymethyl)-4-((2-(trifluoromethyl)pyrimidin-5-yl)sulfonyl)pyrrolidin-1-yl)sulfonyl)benzonitrile] | 10 to 100 nM |
| N#Cc1ccc(S(=O)(=O)N2C[C@H](S(=O)(=O)c3ccc(Br)cn3)[C@](O)(CO)C2)c(Cl)c1 [Example 113, 4-(((3R,4S)-4-((5-bromopyridin-2-yl)sulfonyl)-3-hydroxy-3-(hydroxymethyl)pyrrolidin-1-yl)sulfonyl)-3-chlorobenzonitrile] | 0.1 to 10 nM |
| O=S(=O)(c1ccc(Cl)c(Cl)c1)[C@H]1CN(S(=O)(=O)c2ccc(Cl)cc2Cl)C[C@@]1(O)CO [Example 114, (3R,4S)-1-((2,4-dichlorophenyl)sulfonyl)-4-((3,4-dichlorophenyl)sulfonyl)-3-(hydroxymethyl)pyrrolidin-3-ol] | 10 to 100 nM |
| O=S(=O)(c1ccc(Cl)c(Cl)c1)[C@H]1CN(S(=O)(=O)c2ccc(Cl)cc2Cl)C[C@]1(O)CO [Example 115, (3S,4S)-1-((2,4-dichlorophenyl)sulfonyl)-4-((3,4-dichlorophenyl)sulfonyl)-3-(hydroxymethyl)pyrrolidin-3-ol] | 10 to 100 nM |
| O=S(=O)(c1ccc(C(F)(F)F)cn1)[C@H]1CN(S(=O)(=O)c2ccc(Cl)cc2Cl)C[C@@]1(O)CO [Example 116, (3R,4S)-1-((2,4-dichlorophenyl)sulfonyl)-3-(hydroxymethyl)-4-((5-(trifluoromethyl)pyridin-2-yl)sulfonyl)pyrrolidin-3-ol] | 10 to 100 nM |
| N#Cc1cc(C(F)(F)F)ccc1S(=O)(=O)N1C[C@H](S(=O)(=O)c2ccc(Cl)cc2)[C@](O)(CO)C1 [Example 117, 2-(((3R,4S)-4-((4-chlorophenyl)sulfonyl)-3-hydroxy-3-(hydroxymethyl)pyrrolidin-1-yl)sulfonyl)-5-(trifluoromethyl)benzonitrile] | 0.1 to 10 nM |
| O=S(=O)(c1ccc(C(F)(F)F)nc1)[C@H]1CN(S(=O)(=O)c2ccc(Cl)cc2Cl)C[C@@]1(O)CO [Example 118, (3R,4S)-1-((2,4-dichlorophenyl)sulfonyl)-3-(hydroxymethyl)-4-((6-(trifluoromethyl)pyridin-3-yl)sulfonyl)pyrrolidin-3-ol] | 10 to 100 nM |
| C[C@H](O)[C@]1(O)CN(S(=O)(=O)c2ccc(C#N)cc2Cl)C[C@@H]1S(=O)(=O)c1ccc(Cl)cn1 [Example 119, 3-chloro-4-(((3R,4S)-4-((5-chloropyridin-2-yl)sulfonyl)-3-hydroxy-3-((S)-1-hydroxyethyl)pyrrolidin-1-yl)sulfonyl)benzonitrile] | 0.1 to 10 nM |
| C[C@@H](O)[C@]1(O)CN(S(=O)(=O)c2ccc(C#N)cc2Cl)C[C@@H]1S(=O)(=O)c1ccc(Cl)cn1 [Example 120, 3-chloro-4-(((3R,4S)-4-((5-chloropyridin-2-yl)sulfonyl)-3-hydroxy-3-((R)-1-hydroxyethyl)pyrrolidin-1-yl)sulfonyl)benzonitrile] | 0.1 to 10 nM |
| N#Cc1ccc(S(=O)(=O)N2C[C@H](S(=O)(=O)c3ccc(Cl)cn3)[C@](O)(CN)C2)c(Cl)c1 [Example 121, 4-(((3S,4S)-3-(aminomethyl)-4-((5-chloropyridin-2-yl)sulfonyl)-3-hydroxypyrrolidin-1-yl)sulfonyl)-3-chlorobenzonitrile] | 0.1 to 10 nM |
